# Results reported in US11377469B2, “CD73 inhibitors” (ORIC Pharmaceuticals, Inc., priority 2017, dated 2022).
# Target: CD73 (Homo sapiens (Human), UniProt P21589)
# Assay: Biochemical Assay (CD73 inhibition, AMP hydrolysis, Malachite Green readout)
# Conditions: CD73 0.3208 nM, AMP 15 μM, Tris-HCl pH 7.4, Malachite Green absorbance
# Chain of CD73 (P21589 27-574): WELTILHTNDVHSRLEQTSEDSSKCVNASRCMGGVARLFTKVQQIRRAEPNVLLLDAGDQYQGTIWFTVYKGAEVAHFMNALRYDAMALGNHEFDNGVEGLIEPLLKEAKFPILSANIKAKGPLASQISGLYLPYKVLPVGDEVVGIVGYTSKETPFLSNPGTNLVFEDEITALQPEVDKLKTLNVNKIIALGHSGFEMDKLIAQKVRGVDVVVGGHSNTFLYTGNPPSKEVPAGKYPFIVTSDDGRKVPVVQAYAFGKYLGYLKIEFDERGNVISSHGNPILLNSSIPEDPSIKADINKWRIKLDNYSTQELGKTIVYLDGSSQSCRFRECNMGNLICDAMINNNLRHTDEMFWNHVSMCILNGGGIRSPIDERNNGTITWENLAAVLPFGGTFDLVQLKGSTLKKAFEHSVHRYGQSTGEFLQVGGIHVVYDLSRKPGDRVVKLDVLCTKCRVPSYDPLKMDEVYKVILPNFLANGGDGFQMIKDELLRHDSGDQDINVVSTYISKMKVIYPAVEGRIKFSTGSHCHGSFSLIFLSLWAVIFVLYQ
row,Compound,IC50 [µM]
1,"C[C@H]1CCC[C@H]1Nc1nc(Cl)nc2c1cnn2[C@@H]1O[C@H](CS(=O)(=O)CP(=O)(O)O)[C@@H](O)[C@H]1O [Example 134, (((((2S,3S,4R,5R)-5-(6-chloro-4-(((1R,2S)-2-methylcyclopentyl)amino)-1H-pyrazolo[3,4-d]pyrimidin-1-yl)-3,4-dihydroxytetrahydrofuran-2-yl)methyl)sulfonyl)methyl)phosphonic acid]",≤ 0.5
2,"C[C@@H]1CCC[C@@H]1Nc1nc(Cl)nc2c1cnn2[C@@H]1O[C@H](CS(=O)(=O)CP(=O)(O)O)[C@@H](O)[C@H]1O [Example 135, (((((2S,3S,4R,5R)-5-(6-chloro-4-(((1S,2R)-2-methylcyclopentyl)amino)-1H-pyrazolo[3,4-d]pyrimidin-1-yl)-3,4-dihydroxytetrahydrofuran-2-yl)methyl)sulfonyl)methyl)phosphonic acid]",≤ 0.5
3,"O=P(O)(O)COC[C@H]1O[C@@H](n2ccc3c(NC4CCCC4)nc(Cl)nc32)[C@H](O)[C@@H]1O [Example 137, ((((2R,3S,4R,5R)-5-(2-chloro-4-(cyclopentylamino)-7H-pyrrolo[2,3-d]pyrimidin-7-yl)-3,4-dihydroxytetrahydrofuran-2-yl)methoxy)methyl)phosphonic acid]",≤ 0.5
4,"((((1R,2R,3S,4R)-4-(5-Chloro-7-(((R)-2,3-dihydro-1H-inden-1-yl)amino)-3H-[1,2,3]triazolo[4,5-d]pyrimidin-3-yl)-2,3-dihydroxycyclopentyl)methoxy)methyl)phosphonic acid [Example 23]",≤ 0.5
5,"((((2R,3S,4R,5R)-5-(5-chloro-7-((3- chlorobenzyl)pamino)-3H[1,2,3]triazolo[4,5- d]pyrimidin-3-yl)-3,4- dihydroxytetrahydrofuran-2- yl)methoxy)methyl)phosphonic acid [Example 24]",≤ 0.5

# Second part, the compound after the results:
row,IC50 [µM],Compound
1,≤ 0.5,COCCN(c1nc(Cl)nc2c1cnn2[C@@H]1O[C@H](CS(=O)(=O)CP(=O)(O)O)[C@@H](O)[C@H]1O)C1CCCC1 [Example 133]
2,≤ 0.5,"N#CC1(CNc2nc(Cl)nc3c2cnn3[C@@H]2O[C@H](COCP(=O)(O)O)[C@@H](O)[C@H]2O)CC1 [Example 138, ((((2R,3S,4R,5R)-5-(6-chloro-4-(((1-cyanocyclopropyl)methyl)amino)-1H-pyrazolo[3,4-d]pyrimidin-1-yl)-3,4-dihydroxytetrahydrofuran-2-yl)methoxy)methyl)phosphonic acid]"
